Where two headings read alike, the source gives them in different places. Bounds are passed on as bounds.

Assay type in all cases: cell-based
The test system of test [1] is Chlorella vulgaris. Description: Inhibition of fluorescence emission of Chlorella vulgaris incubated at 35° C. As to conditions: 15 minutes. The procedure:
The present invention also concerns a method for ammonia nitrogen detection comprising changing algal cell permeability. This compound is detected at 100 ppm at neutral pH but the increment of pH up to 11 decreases the threshold to 1 ppm. Algal permeability can also be modified by increasing the incubation temperature of the assay. For example, fluorescence emission is inhibited in 15 minutes by copper ions, tetracycline and progesterone if Chlorella vulgaris is incubated at 35° C., while at room temperature the detection of these compounds in 15 minutes was possible when these compounds are present at higher concentrations. Chlorella vulgaris is a freshwater alga and is used for freshwater monitoring while Dunaliella tertiolecta is used of for marine water monitoring.

Test [2] deals with Chlorella vulgaris. Conditions: for Detection: 60 minutes of incubation; for Inhibition: 0.5 ppm, 15 minutes of incubation. The procedure:
(§1) A Chlorella vulgaris culture was prepared as described in Example 1 above. As indicated in Example 1, the algae were reactivated before testing under ambient light and at room temperature during 90 minutes.
The formulation was then incubated under ambient light at 35° C. and at neutral pH with cadmium, copper, chromium, zinc, nickel, or lead, at indicated concentrations at incubation times varying between 15 minutes and 120 minutes. (FIGS. 9 to 12). The formulations were tested without additives or with 1 ppm cadmium, 0.1 ppm copper or 0.25 ppm copper as additive. The cellular concentration was 2.5×10^6 cells/mL (50 μL of algae within 2 mL of metal containing aqueous solution (i.e. distilled water)). Testing was performed in triplicates. The fluorescence emitted by each formulation was then measured with Luminotox™, a fluorometer that measures photosynthetic activity.

Test [3] concerns Chlorella vulgaris. Conditions: neutral pH (pH 7), 5×10^6 cells/mL. The procedure: The algae concentration was 5×10^6 cells/mL (100 μL of algae within 2 mL of aqueous solution (i.e. distilled water)) containing the substance to detect at indicated concentrations. For each substances, 5 concentrations in triplicates were tested. The TOXSTAT™ software was used to calculate from inhibition values and standard deviations obtained, the maximum concentration without observable effect and the minimal concentration with observable effects. The threshold was calculated with the following formula: (maximum concentration without observable effect x minimal concentration with observable effects)^1/2 (See Table 2 below). The temperature was controlled by a thermostatic bath.
(§2) The detection threshold was obtained with the geometric mean. It was calculated with the following formula: Detection threshold=(CSEO×CMEO)^1/2 where
(§3) CMEO=minimal concentration resulting in a detectable inhibition of the algae efficacy.
(§4) CSEO and CMEO were estimated by a variance analysis ANNOVA™ followed by a Dunnett multiple comparison by comparing the mean efficacy of each tested concentration with the control mean. Calculations were performed with TOXSTAT™ (Version 3.5).

The test system of test [4] is Chlorella vulgaris. Description: Stability of F2 fluorescence of Chlorella vulgaris incubated with additives. As to conditions: up to 120 minutes of incubation. The procedure: F2 fluorescence levels produced by Chlorella vulgaris prepared as described in Example 1 above was measured after incubation with additives tested above, namely cadmium (0.5 ppm), cadmium (1 ppm), copper (0.1 ppm) and copper (0.25 ppm). As may be seen in FIG. 8, F2 fluorescence was stable after up to 120 minutes of incubation for each of these additives.

For test [5], the system named is Chlorella vulgaris. Description: Detection of lead with Chlorella vulgaris with single additives or additive mixtures. As for the experimental part: as §1
The formulation was then incubated under ambient light at 35° C. and at neutral pH with lead, at indicated concentrations and at incubation times varying between 15 minutes and 120 minutes (FIGS. 13 to 16). The formulations were tested with or without additives used as single additives (Cd 1 ppm, Cu 0.1 ppm and Cu 0.25 ppm) or mixes of additives (Cu 0.1 ppm+Cd 0.5 ppm; Cu 0.1 ppm+Cd 1 ppm; Cu 0.25 ppm+Cd 1 ppm). The cellular concentration was 2.5×10^6 cells/mL (50 μL of algae within 2 mL of lead containing aqueous solution (i.e. distilled water) with or without additives). Testing was performed in triplicates. The fluorescence emitted by each formulation was then measured with Luminotox™ a fluorometer that measures photosynthetic activity.

Test [6] has as its system Dunaliella tertiolecta. Conditions: 15 min. green light exposition at room temperature; neutral pH (pH 7); 350 000 cells/mL. The procedure: as §2, §3, §4
(§5) A Dunaliella tertiolecta culture was prepared as described in Example 2 above. As indicated in Example 2, the algae were reactivated before testing under ambient light and at room temperature during 45 minutes.
The algae formulations were then incubated for 15 minutes with water containing one of the various contaminants listed in Table 2 below at neutral pH under green light and at room temperature. The algae concentration was 350 000 cells/mL (500 μL of algae within 2 mL of aqueous solution (i.e. distilled water) containing substance to detect at indicated concentrations). For each substances, 5 concentrations in triplicates were tested. The TOXSTAT™ software was used to calculate from inhibition values and standard deviations obtained, the maximum concentration without observable effect and the minimal concentration with observable effects (See Table 2 below). The temperature was controlled by a thermostatic bath. Tests were performed in triplicates. The fluorescence emitted by each formulation was then measured with Luminotox™, a fluorometer that measures photosynthetic activity and detection threshold determined as described in the Example above.

Test [7] has as its system Chlorella vulgaris. Description: Stability of Chlorella vulgaris assessed by the CI20 of atrazine. Conditions: 10 min green light, room temperature; + or − two sigma 0.002; algae stored at 4° C. and 20° C.; atrazine tested 0-0.04 mg/L. The procedure: The stability of Chlorella vulgaris was evaluated by determining the Cl20 of atrazine using seven different atrazine concentrations. Cl20 is the concentration of atrazine inhibiting 20% of the efficacy emitted by Chlorella vulgaris as compared to a control Chlorella vulgaris preparation. The Cl20 is statistically determined with the software Icp version 2.0. Stability over time is determined by assessing the number of Cl20 within a range of 2 σ of average.
A Chlorella vulgaris culture was prepared as described in Example 1 above. As indicated above, the algae were reactivated before testing during 90 minutes under ambient light and at room temperature.
The culture was then incubated with atrazine for 10 minutes under green light and at room temperature. The cellular concentration of the algae was 5×10^6 cells/mL of solution (100 μL algae in 2 mL of atrazine-containing aqueous solution (i.e. distilled water)). The concentration of atrazine varied between 0 and 0.04 mg/L. Testing was performed in triplicates. The fluorescence emitted by each formulation was then measured with Luminotox™, a fluorometer that measures photosynthetic activity.

Another test deals with Anabaena sp. Description: Detection of bioactive molecules with Anabaena sp.: inhibition of photosynthetic fluorescence (Luminotox). Conditions: 10 min, neutral pH; for inhibition at 0.001 ppm: 1 ppb. The procedure:
The photosynthetic efficiency is determined with the following formula (F2−F1)/F2. Any molecule affecting directly or indirectly the photosystems modify either F1 or F2 which modification necessarily decreases the photosynthetic efficiency. The inhibition curve of a particular molecule is determined by calculating the activity of the photosystems in the absence of the molecule and in the presence of the molecule and comparing both efficiency as follows as described in Conrad 1993:
Without Inhibitor (wi): efficiency(wi)=(F2(wi)−F1(wi)/F2(wi) With Inhibitor: Relative photosynthetic efficiency(sample)=(F2(sample)−F1(sample))/F2(wi) Percentage Efficiency: efficiency (%)=(efficiency(sample)×100)/efficiency(wi) Percentage Inhibition: Inhibition (%)=100−efficiency (%)
An Anabaena sp. culture was prepared as described in Example 3 above. As indicated in Example 3, the cyanobacteria were reactivated before testing under ambient light and at room temperature during 60 minutes.
The culture was then incubated with bioactive molecules listed in Table 1 below at concentrations of 1 ppm (except for atrazine which was used at a concentration of 1 ppb) for 10 minutes under ambient light followed by 10 minutes under green light and neutral pH. The cellular concentration was 1.0×10^7 cells/mL (100 μL of cyanobacteria within 2 mL of bioactive agent containing aqueous solution (i.e. distilled water)). Testing was performed in triplicates. The fluorescence emitted by each formulation was then measured with Luminotox™ a fluorometer that measures photosynthetic activity.

For test [8], the system named is Dunaliella tertiolecta. Description: Progesterone detection with Dunaliella tertiolecta, green light versus white light then green light. As to conditions: 0.25 h, 15 min green light only, 350 000 cells/mL, read-out: Maximum percentage inhibition. As for the experimental part: as §5
The formulation was then incubated with progesterone at concentrations of 0; 0.05; […] or 1 ppm for 15 minutes under green light only or for 15 minutes under ambient light followed by 5 to 35 minutes under green light. The cellular concentration was 350 000 cells/mL (500 μL of algae within 2 mL of progesterone containing aqueous solution (i.e. distilled water)). Testing was performed in triplicates. The fluorescence emitted by each formulation was then measured with Luminotox™, a fluorometer that measures photosynthetic activity.

The subject of test [9] is Chlorella vulgaris. The test can be described thus: Tetracycline detection with Chlorella vulgaris (ambient light, 35° C., low algae concentration). Conditions: within 15 minutes, neutral pH, 2.5×10^6 cells/mL. As for the experimental part:
as §1
The algae formulation was then incubated for 15 or 60 minutes with water containing tetracycline at the indicated concentrations (FIG. 17) under ambient light at a temperature of 35° C. and at a neutral pH. Algae concentrations of 2.5×10^6 cells/mL (50 μL of algae within 2 mL of tetracycline-containing aqueous solutions (i.e. distilled water)) were tested. Testing was performed in triplicates. The fluorescence emitted by each formulation was then measured with Luminotox™, a fluorometer that measures photosynthetic activity.

Where [10] appears, read: 10-15 min. exposition to ambiant light at 35° C.

As usually defined, the Inhibition is the drop in the measured response relative to a control, in per cent. Low values mean little suppression, high ones strong suppression. In the case of `[Cu]` [Cu, Copper], the Fluorescence emission entry in the test with Chlorella vulgaris [1] is “inhibited”. Moreover, the Detection result with Chlorella vulgaris [2] (0.25 ppm, without additives) is “not detected”. Further, the Inhibition is listed as 30% in the test on Chlorella vulgaris [2] (cadmium 1 ppm as additive) and 15% with Chlorella vulgaris [2] (without additive, ambient light 35° C.). This compound registered a Detection threshold with Chlorella vulgaris [3] (setting [10]) of 0.25 ppm. The “F2 fluorescence over time” value with Chlorella vulgaris [4] (0.1 ppm) and with Chlorella vulgaris [4] (0.25 ppm) was “stable” throughout.
Consider `[Pb]` [Pb, Lead], for which the “Concentration of lead detected” value worked out at 1 ppm with Chlorella vulgaris [5] (15 minutes of incubation, with mixtures of additives); 0.1 ppm in the test on Chlorella vulgaris [5] (30 minutes of incubation, mixture Cu 0.1 ppm+Cd 1 ppm); 0.01 ppm in the test on Chlorella vulgaris [5] (120 minutes of incubation, additive mixtures Cu 0.1 ppm+Cd 0.5 ppm and Cu 0.25 ppm+Cd 1 ppm). Further, the “Concentration of lead whose detection was increased” value in the test on Chlorella vulgaris [5] (60 minutes of incubation, all additive mixtures) is reported as no less than 0.1 ppm. Also, in the test on Chlorella vulgaris [2] (1 ppm, without additive), the Detection entry is on record as “detected although weakly”. Also, in the test on Chlorella vulgaris [3] (setting [10]), the Detection threshold was less than 0.5 ppm.
Broadly, the inhibition is the drop in the measured response relative to a control, in per cent. As for `CCNc1nc(Cl)nc(NC(C)C)n1` [atrazine], the Detection threshold with Dunaliella tertiolecta [6] is on record as 0.01 ppm; with Chlorella vulgaris [3] (10-15 min. green light exposition at room temperature), 0.0007 ppm. Besides, in the test on Chlorella vulgaris [7], the “CI20 (concentration inhibiting 20% of the efficacy), average over storage” value is reported as 0.0037. In addition, the inhibition at 0.001 ppm in the test with Anabaena sp. (10 min ambient light followed by 10 min green light, read-out: Inhibition obtained (followed by 10 min green light)) was 13%; in the test with Anabaena sp. (10 min ambient light, read-out: Inhibition obtained (10 min ambiant light)), 1%.
For the compound `CC(=O)[C@H]1CC[C@H]2[C@@H]3CCC4=CC(=O)CC[C@]4(C)[C@H]3CC[C@]12C` [progesterone], in the test with Dunaliella tertiolecta [8], the inhibition at 1 ppm is 40%. Further, in the test on Chlorella vulgaris [1], the Fluorescence emission entry is “inhibited”.
As to `CN(C)[C@@H]1C(O)=C(C(N)=O)C(=O)[C@@]2(O)C(O)=C3C(=O)c4c(O)cccc4[C@@](C)(O)[C@H]3C[C@@H]12` [tetracycline], in the test with Chlorella vulgaris [9], the Concentration detected worked out at 10 µg/mL. The inhibition at 1 ppm in the test on Anabaena sp. (10 min ambient light followed by 10 min green light, read-out: Inhibition obtained at 1 ppm (followed by 10 min green light)) was determined as 30%; in the test with Anabaena sp. (10 min ambient light, 1.0×10^7 cells/mL, read-out: Inhibition obtained at 1 ppm (10 min ambiant light)), 0%.

Source of the values: US8652799B2, “Method of detecting bioactive molecules in a fluid sample” (priority 2008, dated 2014).
